Results reported in patent US20180191012A1, “AQUEOUS […]-BASED REDOX FLOW BATTERIES” (UCHICAGO ARGONNE, LLC, priority 2016, published 2018).

Settings: 10 mM compound in 0.5 M aqueous NaCl; well-defined, reversible redox waves

**Q.** With c1cc[n+]2c(c1)-c1cccc[n+]1CC2 [A, N,N′-(ethan-1,2-diyl)-2,2′-bipyridinedium dibromide] as the molecule, how does the “redox potential versus Ag/AgCl” value read?
**A.** −0.60 V
